Laboratory results taken from publication PMC6636992 (Science Advances, 2019).
Ends that are not written are not given here. * marks the point of attachment. Isobutyryl(2-OH) = CC(C)(O)C(=O)*

Experiments:
R58M CobB = test: ITC affinity of Khib peptide with R58M CobB; type: binding, P. mirabilis; details: 37°C
WT CobB = test: De-2-hydroxyisobutyrylation kinetics by MALDI-TOF MS, WT CobB; type: biochemical, P. mirabilis
Y55F CobB = test: De-2-hydroxyisobutyrylation kinetics by MALDI-TOF MS, Y55F CobB; type: biochemical, P. mirabilis
CobB = test: LC-MS detection of deacylation of gpmA peptides by CobB; type: biochemical, P. mirabilis
R58M mutant CobB = test: LC-MS detection of deacylation of gpmA peptides by R58M mutant CobB; type: biochemical, P. mirabilis; details: 50 μM peptide, 1 μM CobB, 1 mM NAD^+, pH 8.5, 37°C, 2 hours
recombinant ENO = type: biochemical, P. mirabilis; details: NAM 10 mM with CobB and NAD^+, 25°C, 10 hours, Western blotting
P. mirabilis = test: Growth curve of overexpressing P. mirabilis; type: cell-based; details: ENO WT or mutant-overexpressing P. mirabilis, OD600, 37°C
R58M CobB (P. mirabilis) = test: ITC
Y55F CobB (P. mirabilis) = test: ITC
[1] = biological target: recombinant CobB (WT) (P. mirabilis); test: ITC
[2] = Km for peptide, MALDI-TOF MS, 1 mM NAD^+, pH 8.5, 37°C, 2 min
[3] = MALDI-TOF MS, 1 mM NAD^+, pH 8.5, 37°C, 2 min, 2-285 μM peptide

For YGDEQVK(hib)QWR, the “change of affinity of R58M CobB compared with WT CobB” value (R58M CobB) was “significantly decreased eight times”, the kcat/Km (WT CobB) was 17000 s⁻¹ µM⁻¹ and the Km (WT CobB; [2]) was 13.3 ± 1.6 µM. For the same molecule, the kcat (WT CobB; [3]) was 0.225 ± 0.011 s⁻¹, the kcat/Km (Y55F CobB) was 8300 s⁻¹ µM⁻¹ and the Km (Y55F CobB; [2]) was 12.2 ± 2 µM. The kcat (Y55F CobB; [3]) was 0.101 ± 0.006 s⁻¹, the “hydrolysis by CobB in the presence of NAD^+” value (CobB; 50 μM peptide, 1 μM CobB, 1 mM NAD^+, pH 8.5, 37°C, 2 hours) was “efficiently catalyzed the hydrolysis” and the “de-2-hydroxyisobutyrylated peptide without NAD^+” value (CobB; 50 μM peptide, 1 μM CobB, without NAD^+) was “not detected”. For the same molecule, the “deacylated peptide after treatment with R58M mutant” value (R58M mutant CobB) was “not detectable”.

In the case of `NC(=O)c1cccnc1` [NAM, nicotinamide], the “inhibitory effect on removal of Khib relative to other acyl groups” value (CobB; NAM 10 mM) is reported as “greatest inhibitory effect on Khib”, the “inhibitory effect on removal of Ksucc relative to other acyl groups” value (CobB; NAM 10 mM) is reported as “least effect on Ksucc” and the “inhibition of de-2-hydroxyisobutyrylation reaction” value (CobB; NAM 10 mM, 50 μM peptide, 1 μM CobB) is reported as “inhibited efficiently”. The “change of modifications of ENO with NAD^+ and NAM” value (recombinant ENO) was “no significant change in the modifications of ENO”.

ENO-K326Q/K343T was tested, and the growth rate (P. mirabilis) was “the lowest”.

In the case of “ENO: enolase of P. mirabilis, His-tagged fusion protein”, the growth rate (P. mirabilis) is reported as “faster than that of mutated ENO-overexpressing P. mirabilis”.

B1: 2-hydroxyisobutyrylated peptide [YGDEQVK(hib)QWR] (peptide)
peptide: YGDEQVK(Isobutyryl(2-OH))QWR
With B1 the Kd (R58M CobB (P. mirabilis)) was 15.9 µM, the Kd (Y55F CobB (P. mirabilis)) was 2340 nM and the Kd [1] was 2030 nM.
